This is an account of results in patent US20110257208A1, “COMPOUNDS USEFUL AS FAAH MODULATORS AND USES THEREOF” (priority 2008, published 2011).

This experiment addresses T1, hFAAH (Homo sapiens, UniProt O00519).
T1 construct: expressed in transfected cells; host or cells: HEK293-TRex (Invitrogen) stably transfected with hFAAH in the pcDNA5-Tet-off vector, or T84 human colon epithelial cells (endogenous hFAAH); used as a microsomal preparation
T1 sequence (O00519 1-579): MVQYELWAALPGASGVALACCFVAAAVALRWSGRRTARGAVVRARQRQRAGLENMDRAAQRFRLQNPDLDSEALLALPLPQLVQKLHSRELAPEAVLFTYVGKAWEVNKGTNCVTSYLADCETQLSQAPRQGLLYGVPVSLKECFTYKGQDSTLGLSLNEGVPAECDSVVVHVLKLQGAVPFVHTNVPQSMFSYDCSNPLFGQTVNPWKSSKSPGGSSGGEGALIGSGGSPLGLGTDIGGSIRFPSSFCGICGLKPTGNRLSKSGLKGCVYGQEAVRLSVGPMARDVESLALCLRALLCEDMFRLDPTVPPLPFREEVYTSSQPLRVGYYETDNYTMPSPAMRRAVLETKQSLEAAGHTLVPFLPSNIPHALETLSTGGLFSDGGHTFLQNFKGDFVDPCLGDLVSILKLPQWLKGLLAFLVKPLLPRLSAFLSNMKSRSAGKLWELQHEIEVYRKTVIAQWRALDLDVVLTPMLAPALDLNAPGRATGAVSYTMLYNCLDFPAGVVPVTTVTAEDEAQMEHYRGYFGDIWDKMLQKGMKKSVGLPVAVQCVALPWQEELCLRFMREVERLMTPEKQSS
The experiment in a line: Fluorimetric assay with hFAAH microsomes (enzymatic, fluorescence based). The experiment is classed as biochemical. The conditions noted are these: compound at 1 uM, AA-AMC substrate. The method, boiled down:
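Microsomes from T84 cells (endogenous hFAAH) or doxycycline-induced HEK293-TRex cells stably expressing hFAAH, 10 μg per well, in 50 mM HEPES pH 7.4, 1 mM EDTA, 1.4 mg/mL BSA with 2 μM AA-AMC. Kinetic fluorescence read (ex 355/em 460 nm, 275 cycles); activity as % inhibition, 7 concentrations in duplicate.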

The structures appear in SMILES notation.

With `Cc1nc(C)c(CN2Cc3ncnc(Nc4cnc5ccccc5c4)c3C2)s1` [Compound 28, [6-(2,4-Dimethyl-thiazol-5-ylmethyl)-6,7-dihydro-5H-pyrrolo[3,4-d]pyrimidin-4-yl]-quinolin-3-yl-amine], the inhibition (in general, the relative decrease from the control value, in per cent) at 1 µM is more than 75%. Then `CC(CN1Cc2ncnc(Nc3cnc4ccccc4c3)c2C1)c1ccccc1` (stereo not shown) [Compound 19, [6-(2-Phenyl-propyl)-6,7-dihydro-5H-pyrrolo[3,4-d]pyrimidin-4-yl]-quinolin-3-yl-amine], with more than 75%. Take `Clc1ncc(CN2Cc3ncnc(Nc4cnc5ccccc5c4)c3C2)s1` [Compound 91, [6-(2-Chloro-thiazol-5-ylmethyl)-6,7-dihydro-5H-pyrrolo[3,4-d]pyrimidin-4-yl]-quinolin-3-yl-amine]: the inhibition at 1 µM is more than 50%. For `O=S(=O)(C1CCCCC1)N1Cc2ncnc(Nc3cnc4ccccc4c3)c2C1` [Compound 64, (6-Cyclohexanesulfonyl-6,7-dihydro-5H-pyrrolo[3,4-d]pyrimidin-4-yl)-quinolin-3-yl-amine], the inhibition at 1 µM is more than 50%. Then `Fc1ccccc1CN1Cc2ncnc(Nc3cnc4ccccc4c3)c2C1` [Compound 80, [6-(2-Fluoro-benzyl)-6,7-dihydro-5H-pyrrolo[3,4-d]pyrimidin-4-yl]-quinolin-3-yl-amine], with more than 75%; and `CCc1ccccc1CN1Cc2ncnc(Nc3cnc4ccccc4c3)c2C1` [Compound 90, [6-(2-Ethyl-benzyl)-6,7-dihydro-5H-pyrrolo[3,4-d]pyrimidin-4-yl]-quinolin-3-yl-amine], with more than 75%. For `FC(F)(F)CCN1Cc2ncnc(Nc3cnc4ccccc4c3)c2C1` [Compound 31, Quinolin-3-yl-[6-(3,3,3-trifluoro-propyl)-6,7-dihydro-5H-pyrrolo[3,4-d]pyrimidin-4-yl]-amine], the inhibition at 1 µM is more than 50%.
